Results: paper PMC5908295 (Oncotarget, 2018)

Legend:
MV-4-11 xenograft = assay: MV-4-11 xenograft, SEL24-B489 and AraC alone or combined; assay type: in vivo, mice; details: MV-4-11, AraC alone 50 mg/kg three times weekly IP
Excerpt: All animals were handled in strict accordance with good animal practice as defined by the relevant national and local animal welfare bodies. SCID and SCID/beige C.B-17 mice were provided by Harlan Laboratories or Charles River Laboratories, and were maintained in pathogen free conditions. For the xenograft experiments, age-matched (9-11 weeks old) females were used. 5×10^6 of MV-4-11 or MOLM-16 cells were suspended in a mixture (1:1, v:v) of PBS with Matrigel (BD Biosciences,) and injected subcutaneously (sc), in a total volume of 100 μL, above the groin on the right hind limb. For MOLM-13 and KG-1 cells, a mixture (3:1, v:v) of PBS and Matrigel HC (BD Bioscience,) was used to inject 5 × 10^6 of cell per mouse subcutaneously (sc), in a total volume of 100 μL. When tumors reached 100-130 mm^3, mice were randomized into uniform groups (6-9 mice per group) and subsequently administered the compound. […] At the end of the experiment, mice were anesthetized with isofluran and blood samples for total cell counts and biochemistry were obtained by retro-orbital bleeding. […] 5×10^6 cells suspended in a mixture (3:1, v:v) of PBS and Matrigel were injected as described above. […] Tumor volume was monitored every second day and calculated using the formula: TV = (a^2×b)/2, where “a” is the short axis in millimeters, and “b” is the long axis in millimeters. Body weight was assessed every day.

[1] = Blood biochemistry in mice with MV-4-11 tumors; assay type: in vivo; details: Cytarabine 50 mg/kg, treatment day 15
Excerpt: All animals were handled in strict accordance with good animal practice as defined by the relevant national and local animal welfare bodies. SCID and SCID/beige C.B-17 mice were provided by Harlan Laboratories or Charles River Laboratories, and were maintained in pathogen free conditions. For the xenograft experiments, age-matched (9-11 weeks old) females were used. 5×10^6 of MV-4-11 or MOLM-16 cells were suspended in a mixture (1:1, v:v) of PBS with Matrigel (BD Biosciences,) and injected subcutaneously (sc), in a total volume of 100 μL, above the groin on the right hind limb. For MOLM-13 and KG-1 cells, a mixture (3:1, v:v) of PBS and Matrigel HC (BD Bioscience,) was used to inject 5 × 10^6 of cell per mouse subcutaneously (sc), in a total volume of 100 μL. When tumors reached 100-130 mm^3, mice were randomized into uniform groups (6-9 mice per group) and subsequently administered the compound. […] At the end of the experiment, mice were anesthetized with isofluran and blood samples for total cell counts and biochemistry were obtained by retro-orbital bleeding. […] 5×10^6 cells suspended in a mixture (3:1, v:v) of PBS and Matrigel were injected as described above. When the tumor volume reached ~120 mm^3, mice were randomized into uniform groups (5 mice per group) and the compound then administered. […] Tumor volume was monitored every second day and calculated using the formula: TV = (a^2×b)/2, where “a” is the short axis in millimeters, and “b” is the long axis in millimeters. Body weight was assessed every day.
Supplementary Table 9: Related to Figure 5C. […] The assessment of
was performed on treatment day 15.
AST – Aspartate aminotransferase, ALT – Alanine transaminase, ALP – alkaline phosphatase, UREA – blood urea nitrogen,
CREA – Creatinine, CK – Creatine kinase, TP- total protein; ALB – Albumin. […]

[2] = Total blood cell counts in mice with MV-4-11 tumors; details: Cytarabine 50 mg/kg, treatment day 15
Excerpt: All animals were handled in strict accordance with good animal practice as defined by the relevant national and local animal welfare bodies. SCID and SCID/beige C.B-17 mice were provided by Harlan Laboratories or Charles River Laboratories, and were maintained in pathogen free conditions. For the xenograft experiments, age-matched (9-11 weeks old) females were used. 5×10^6 of MV-4-11 or MOLM-16 cells were suspended in a mixture (1:1, v:v) of PBS with Matrigel (BD Biosciences,) and injected subcutaneously (sc), in a total volume of 100 μL, above the groin on the right hind limb. For MOLM-13 and KG-1 cells, a mixture (3:1, v:v) of PBS and Matrigel HC (BD Bioscience,) was used to inject 5 × 10^6 of cell per mouse subcutaneously (sc), in a total volume of 100 μL. When tumors reached 100-130 mm^3, mice were randomized into uniform groups (6-9 mice per group) and subsequently administered the compound. […] At the end of the experiment, mice were anesthetized with isofluran and blood samples for total cell counts and biochemistry were obtained by retro-orbital bleeding. […] 5×10^6 cells suspended in a mixture (3:1, v:v) of PBS and Matrigel were injected as described above. When the tumor volume reached ~120 mm^3, mice were randomized into uniform groups (5 mice per group) and the compound then administered. […] Tumor volume was monitored every second day and calculated using the formula: TV = (a^2×b)/2, where “a” is the short axis in millimeters, and “b” is the long axis in millimeters. Body weight was assessed every day. […]
Supplementary Table 10: Related to Figure 5C. […] The assessment total
performed on treatment day 15.
RBC – red blood cells, HGB – hemoglobin, HCT – hematocrit, WBC – white blood cells, LYMPH – lymphocytes, MONO
– monocytes, GRA – granulocytes, PLT – platelet, MPV – mean platelet volume.

MV-4-11 = assay: MTS viability assay, 72 h; details: Homo sapiens, MV4-11, 72 h
Method: (§1) On the same day, 50 μL of medium containing tested inhibitor was added to the wells. Each compound was tested at 8 concentrations, in triplicates. As a negative control, the medium containing 0.1% DMSO was used. […] Staurosporine was used at 10 μM as a positive control. One the day of drug addition, basal signal from untreated cells was measured from in triplicate to determine time zero (T0). […] GI50 and LC50 values were extrapolated from a variable (four-parameter) dose-response curve fitted in GraphPad Prism.

MOLM-13 = assay: MTS viability assay, 72 h; details: Homo sapiens, MOLM-13, 72 h
Method: (§2) 15-25 ×10^3 of MV-4-11, MOLM-13, MOLM-14, MOLM-16, KG-1, Eol-1, SKM-1, PL-21, GDM-1, SKNO-1, RS4;11, Kasumi-3 and Kasumi-6 cells were seeded in 150 μL of culture medium onto individual wells in a 96 well plates, in triplicates. On the same day, 50 μL of medium containing tested inhibitor was added to the wells. Each compound was tested at 8 concentrations, in triplicates. As a negative control, the medium containing 0.1% DMSO was used. […] Staurosporine was used at 10 μM as a positive control. One the day of drug addition, basal signal from untreated cells was measured from in triplicate to determine time zero (T0). […] GI50 and LC50 values were extrapolated from a variable (four-parameter) dose-response curve fitted in GraphPad Prism.

MOLM-14 = assay: MTS viability assay, 72 h; details: Homo sapiens, MOLM-14, 72 h
Method: as §2

MOLM-16 = assay: MTS viability assay, 72 h; details: MOLM16, 72 h
Method: as §1

KG-1 = assay: MTS viability assay, 72 h; details: Homo sapiens, KG-1, 72 h
Method: as §2

EOL-1 = assay: MTS viability assay, 72 h; details: Homo sapiens, EOL1, 72 h
Method: as §2

KASUMI-3 = assay: MTS viability assay, 72 h; details: Kasumi-3, 72 h
Method: as §2

KASUMI-6 = assay: MTS viability assay, 72 h; details: 72 h
Method: as §2

OCI-AML-2 = assay: MTS viability assay, 72 h; details: Homo sapiens, OCI-AML2, 72 h
Method: as §1

OCI-AML-3 = assay: MTS viability assay, 72 h; details: Homo sapiens, OCI-AML-3, 72 h
Method: as §2

MOLM-6 = assay: MTS viability assay, 72 h; details: 72 h
Method: as §2

RS4;11 = assay: MTS viability assay, 72 h; details: Homo sapiens, RS4-11, 72 h
Method: as §2

SKNO-1 = assay: MTS viability assay, 72 h; details: SKNO-1, 72 h
Method: as §2

SKM-1 = assay: MTS viability assay, 72 h; details: Homo sapiens, SKM-1, 72 h
Method: as §1

SIG-M5 = assay: MTS viability assay, 72 h; details: Homo sapiens, SIG-M5, 72 h
Method: as §1

GDM-1 = assay: MTS viability assay, 72 h; details: Homo sapiens, GDM-1, 72 h
Method: as §2

PL-21 = assay: MTS viability assay, 72 h; details: PL-21, 72 h
Method: as §2

[3] = parameters: method as in PMID 21628411, PMID 24953177; details: off-target inhibition of the potassium channel hERG; cited from earlier work

Nc1ccn([C@@H]2O[C@H](CO)[C@@H](O)[C@@H]2O)c(=O)n1 [Cytarabine]
decrease of tumor growth (MV-4-11 xenograft): 66%
ALB [1]: 4.6 g/dL
ALP [1]: 87.6 U/L
ALT [1]: 153.7 U/L
AST [1]: 247.1 U/L
CK [1]: 1709 U/L
CREA [1]: 0.37 mg/dL
K [1]: 5.4 mM
TP [1]: 4.6 g/dL
UREA [1]: 5.9 mmol/L
GRA [2]: 51.9%
HCT [2]: 49.5%
HGB [2]: 14.4 g/dL
LYMPH [2]: 37.7%
MONO [2]: 10.3%
MPV [2]: 5.9 μm3
PLT [2]: 1098 103/mm3
RBC [2]: 9.9 106/mm3
WBC [2]: 5.0 103/mm3
GI50 (MV-4-11): 340 nM
CC50 (MV-4-11; read-out: LC50): > 10000 nM
GI50 (MOLM-13): < 5 nM
CC50 (MOLM-13; read-out: LC50): > 10000 nM
GI50 (MOLM-14): 48 nM
CC50 (MOLM-14; read-out: LC50): > 10000 nM
GI50 (MOLM-16): 22 nM
CC50 (MOLM-16; read-out: LC50): > 10000 nM
GI50 (KG-1): 12 nM
CC50 (KG-1; read-out: LC50): 71 nM
GI50 (EOL-1): 24 nM
GI50 (KASUMI-3): < 5 nM
CC50 (KASUMI-3; read-out: LC50): 28 nM
GI50 (KASUMI-6): < 5 nM
GI50 (OCI-AML-2): < 5 nM
CC50 (OCI-AML-2; read-out: LC50): 21 nM
GI50 (OCI-AML-3): 81 nM
CC50 (OCI-AML-3; read-out: LC50): > 10000 nM
GI50 (MOLM-6): 30 nM
CC50 (MOLM-6; read-out: LC50): > 10000 nM
GI50 (RS4;11): < 5 nM
CC50 (RS4;11; read-out: LC50): 23 nM
GI50 (SKNO-1): < 5 nM
GI50 (SKM-1): 28 nM
CC50 (SKM-1; read-out: LC50): 6460 nM
GI50 (SIG-M5): 46 nM
CC50 (SIG-M5; read-out: LC50): > 10000 nM
GI50 (GDM-1): < 5 nM
GI50 (PL-21): < 5 nM

CN1CCC(CNc2ccc3ncc(-c4cccc(OC(F)(F)F)c4)n3n2)CC1 [SGI-1776]
outcome of clinical testing [3]: failed clinical testing due to a narrow therapeutic window and cardiac toxicity
